In patent EP4667463A1, “DOMIDE MOLECULAR GLUE DERIVATIVE AND USE THEREOF” (CSPC Megalith Biopharmaceutical Co., Ltd., priority 2023, dated 2024):

Columns and labels:
[1] = Metabolic stability in liver microsomes; conditions: Rat liver microsomes, after 60 min of incubation
Experimental: The final concentration of the substrate in the incubation system was 1 µM, and the incubation time was 60 min. Sampling was performed at 0 min, 5 min, 15 min, 30 min, and 60 min. The reaction was stopped with glacial acetonitrile containing an internal standard (testosterone-d3 at a concentration of 10 ng/mL). Verapamil was used as a positive control. […] The natural logarithm of the remaining percentage was subjected to linear fitting with time to determine the elimination rate constant (k).

[2] = Metabolic stability in liver microsomes; conditions: Dog liver microsomes, after 60 min of incubation
GSPT1 protein = target: T1, GSPT1 protein (Homo sapiens, UniProt P15170+Q96SW2); assay: GSPT1 protein degradation, Nano-Glo HiBiT assay in HiBiT-GSPT1 HEK293T cells; type: cell-based; conditions: 24 h
T1 construct: An HiBiT protein tag was added to the N-terminus of the endogenous GSPT1 protein of HEK293T cells by CRISPR gene editing technology; endogenous in cells; host or cells: HEK293T (CRISPR knock-in HiBiT-GSPT1 cell strain)
T1 sequence (P15170 whole entry): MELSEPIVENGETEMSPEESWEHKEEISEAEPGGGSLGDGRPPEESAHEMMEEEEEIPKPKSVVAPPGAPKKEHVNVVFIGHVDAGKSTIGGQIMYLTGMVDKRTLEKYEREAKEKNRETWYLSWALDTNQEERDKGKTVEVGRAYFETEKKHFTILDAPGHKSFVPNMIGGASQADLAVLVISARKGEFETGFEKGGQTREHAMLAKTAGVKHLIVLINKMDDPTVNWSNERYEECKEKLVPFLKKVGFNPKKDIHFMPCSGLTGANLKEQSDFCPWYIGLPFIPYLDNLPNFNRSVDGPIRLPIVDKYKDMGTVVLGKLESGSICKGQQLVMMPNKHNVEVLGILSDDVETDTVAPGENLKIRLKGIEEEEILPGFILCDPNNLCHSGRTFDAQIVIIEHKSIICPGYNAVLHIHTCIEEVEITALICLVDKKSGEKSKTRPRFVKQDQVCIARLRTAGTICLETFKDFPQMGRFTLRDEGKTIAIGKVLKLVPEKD
T1 sequence (Q96SW2 whole entry): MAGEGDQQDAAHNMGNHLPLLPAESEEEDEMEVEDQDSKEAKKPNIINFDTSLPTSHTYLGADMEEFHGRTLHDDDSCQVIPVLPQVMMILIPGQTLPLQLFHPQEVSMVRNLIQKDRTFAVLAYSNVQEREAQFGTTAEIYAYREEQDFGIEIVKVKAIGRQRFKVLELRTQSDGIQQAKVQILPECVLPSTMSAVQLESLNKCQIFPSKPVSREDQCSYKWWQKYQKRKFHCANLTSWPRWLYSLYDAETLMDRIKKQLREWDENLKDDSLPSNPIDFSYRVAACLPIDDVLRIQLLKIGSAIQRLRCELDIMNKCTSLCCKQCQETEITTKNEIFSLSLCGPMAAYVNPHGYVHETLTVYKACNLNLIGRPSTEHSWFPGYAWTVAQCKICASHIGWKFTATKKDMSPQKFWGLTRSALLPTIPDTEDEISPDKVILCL
T1 sequence (Q16531 whole entry partner): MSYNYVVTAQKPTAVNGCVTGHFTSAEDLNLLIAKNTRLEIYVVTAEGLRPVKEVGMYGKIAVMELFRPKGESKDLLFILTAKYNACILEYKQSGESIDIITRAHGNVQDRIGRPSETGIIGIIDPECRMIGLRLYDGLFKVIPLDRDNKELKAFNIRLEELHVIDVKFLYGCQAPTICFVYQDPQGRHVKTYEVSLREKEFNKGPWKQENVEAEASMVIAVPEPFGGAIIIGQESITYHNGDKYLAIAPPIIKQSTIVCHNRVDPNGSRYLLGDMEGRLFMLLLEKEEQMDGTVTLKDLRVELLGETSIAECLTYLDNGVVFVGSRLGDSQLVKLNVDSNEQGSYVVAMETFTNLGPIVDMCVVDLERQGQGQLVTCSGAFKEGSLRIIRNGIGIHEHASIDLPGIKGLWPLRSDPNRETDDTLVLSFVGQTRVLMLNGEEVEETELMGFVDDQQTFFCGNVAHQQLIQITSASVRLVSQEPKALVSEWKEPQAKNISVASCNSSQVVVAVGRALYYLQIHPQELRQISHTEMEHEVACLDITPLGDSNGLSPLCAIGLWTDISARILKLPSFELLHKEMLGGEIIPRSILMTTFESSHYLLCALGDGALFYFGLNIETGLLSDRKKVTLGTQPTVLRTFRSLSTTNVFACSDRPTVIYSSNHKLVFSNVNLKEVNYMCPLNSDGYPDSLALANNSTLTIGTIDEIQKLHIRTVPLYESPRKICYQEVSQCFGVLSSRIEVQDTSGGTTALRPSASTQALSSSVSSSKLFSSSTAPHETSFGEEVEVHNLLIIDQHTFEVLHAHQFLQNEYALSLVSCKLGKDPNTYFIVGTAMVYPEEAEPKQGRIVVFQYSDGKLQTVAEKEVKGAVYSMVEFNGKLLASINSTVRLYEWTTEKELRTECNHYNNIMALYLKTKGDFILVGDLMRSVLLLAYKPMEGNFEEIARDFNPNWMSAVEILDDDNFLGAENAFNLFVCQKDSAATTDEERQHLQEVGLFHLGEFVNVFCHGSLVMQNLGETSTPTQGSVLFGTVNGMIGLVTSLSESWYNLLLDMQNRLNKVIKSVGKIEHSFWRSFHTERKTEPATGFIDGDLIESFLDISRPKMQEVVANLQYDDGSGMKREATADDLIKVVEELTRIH
Experimental: This experiment was performed to evaluate the targeting property of the compounds. An HiBiT protein tag was added to the N-terminus of the endogenous GSPT1 protein of HEK293T cells by CRISPR gene editing technology, so as to construct a HiBiT-GSPT1 HEK293T stably transfected cell strain. HiBiT-GSPT1 HEK293T cells were cultured in DMEM containing 10% FBS and 1% PenStrep. When the cell confluency reached 80%-90%, the cells were digested with trypsin, pipetted into single cells, and resuspended in a corresponding culture medium to form a cell suspension. The cells were counted using Cell Countess (NanoEnTek, #Cat. EVE-MC2), and the cell viability was determined by trypan blue exclusion to ensure that the cell viability was above 90%. The cells were plated in a 384-well plate (Corning, #Cat. 3764) at 10,000 cells/40 µL of cell suspension per well, and cultured in an incubator at 37 °C with 5% CO2 overnight. The next day, the test compounds were added to the 384-well plate under conditions of 30 µM highest concentration, 5-fold serial dilution, and 1‰ DMSO. The plate was incubated in the incubator at 37 °C with 5% CO2 for another 24 h. Before measurement, the Nano-Glo HiBiT reagent was equilibrated to room temperature, the LgBiT protein was diluted with the Nano-Glo HiBiT Lytic buffer according to a dilution ratio of 1:100, and the Nano-Glo@HiBiT Lytic substrate was diluted to an appropriate volume according to a ratio of 1:50. After the cell culture plate was equilibrated at room temperature for 10 min, 40 µL of Nano-Glo HiBiT Lytic assay reagent was added to each well. The plate was shaken on a microplate shaker at a rotation speed of 300 rpm for 3 min in the dark. After the reaction was completed, the luminescencevalues were read on BMG PHERASTAR FS (BMG LRBTECH, Cat. No.: PHERAstar FSX), and the DC50 values were calculated using GraphPad Prism 8.0. Table 2. GSPT1 protein degradation

SMILES: O=C1CCC(N2Cc3cc(CNC(=O)Nc4ccc(CCCOC5CCCNC5)c(Cl)c4)ccc3C2=O)C(=O)N1 (stereo not drawn) [Compound B19]
- Parent drug remaining % [1]: 88.1%
- Parent drug remaining % [2]: 118%
- DC50 (GSPT1 protein): 66.2 nM
